Source: publication PMC5731698, “Identification and characterization of the three members of the CLC family of anion transport proteins in Trypanosoma brucei” (PLoS ONE, 2017)

Tests used:
[1] = target: T1, TbVCL3 (Trypanosoma brucei, UniProt Q381B7); assay: two-electrode voltage clamp, Xenopus oocytes; format: cell-based
T1 construct: gene Tb11.01.8420; full-length, untagged cRNA in Xenopus laevis oocytes; dimer expected (CLC family), heterodimer with endogenous Xenopus CLC not excluded
T1 sequence (Q381B7 1-918): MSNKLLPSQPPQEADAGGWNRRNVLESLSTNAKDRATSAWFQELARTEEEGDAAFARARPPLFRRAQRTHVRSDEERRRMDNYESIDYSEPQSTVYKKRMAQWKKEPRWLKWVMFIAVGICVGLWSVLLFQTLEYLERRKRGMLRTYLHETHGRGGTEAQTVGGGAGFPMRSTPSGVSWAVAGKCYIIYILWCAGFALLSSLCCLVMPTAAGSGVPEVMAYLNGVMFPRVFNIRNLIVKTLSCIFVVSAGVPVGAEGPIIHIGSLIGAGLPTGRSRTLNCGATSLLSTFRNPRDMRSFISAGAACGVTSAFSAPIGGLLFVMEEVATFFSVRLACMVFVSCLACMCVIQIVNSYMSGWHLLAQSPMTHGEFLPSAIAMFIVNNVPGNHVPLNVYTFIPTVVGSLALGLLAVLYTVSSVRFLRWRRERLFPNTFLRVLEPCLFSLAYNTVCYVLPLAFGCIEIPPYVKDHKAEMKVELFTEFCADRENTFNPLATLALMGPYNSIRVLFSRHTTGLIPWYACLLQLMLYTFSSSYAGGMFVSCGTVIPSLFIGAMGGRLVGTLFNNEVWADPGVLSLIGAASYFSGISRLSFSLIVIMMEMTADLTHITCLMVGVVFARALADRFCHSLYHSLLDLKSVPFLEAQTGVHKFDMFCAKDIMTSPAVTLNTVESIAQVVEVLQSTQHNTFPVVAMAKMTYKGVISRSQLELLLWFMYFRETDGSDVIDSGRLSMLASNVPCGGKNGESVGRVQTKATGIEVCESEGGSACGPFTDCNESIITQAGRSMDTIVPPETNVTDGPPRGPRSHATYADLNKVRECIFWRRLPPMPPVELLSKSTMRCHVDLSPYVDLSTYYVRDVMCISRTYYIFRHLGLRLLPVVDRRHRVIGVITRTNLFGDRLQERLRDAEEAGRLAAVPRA
Excerpt: two-electrode voltage clamp, Xenopus oocytes on TbVCL3 | TbVCL3-expressing oocytes ...

[2] = target: T2, TbVCL2 (Trypanosoma brucei, UniProt Q389H3); assay: two-electrode voltage clamp, Xenopus oocytes; format: cell-based
T2 construct: gene Tb10.26.0220; full-length, untagged cRNA in Xenopus laevis oocytes; dimer expected (CLC family), heterodimer with endogenous Xenopus CLC not excluded
T2 sequence (Q389H3 1-941): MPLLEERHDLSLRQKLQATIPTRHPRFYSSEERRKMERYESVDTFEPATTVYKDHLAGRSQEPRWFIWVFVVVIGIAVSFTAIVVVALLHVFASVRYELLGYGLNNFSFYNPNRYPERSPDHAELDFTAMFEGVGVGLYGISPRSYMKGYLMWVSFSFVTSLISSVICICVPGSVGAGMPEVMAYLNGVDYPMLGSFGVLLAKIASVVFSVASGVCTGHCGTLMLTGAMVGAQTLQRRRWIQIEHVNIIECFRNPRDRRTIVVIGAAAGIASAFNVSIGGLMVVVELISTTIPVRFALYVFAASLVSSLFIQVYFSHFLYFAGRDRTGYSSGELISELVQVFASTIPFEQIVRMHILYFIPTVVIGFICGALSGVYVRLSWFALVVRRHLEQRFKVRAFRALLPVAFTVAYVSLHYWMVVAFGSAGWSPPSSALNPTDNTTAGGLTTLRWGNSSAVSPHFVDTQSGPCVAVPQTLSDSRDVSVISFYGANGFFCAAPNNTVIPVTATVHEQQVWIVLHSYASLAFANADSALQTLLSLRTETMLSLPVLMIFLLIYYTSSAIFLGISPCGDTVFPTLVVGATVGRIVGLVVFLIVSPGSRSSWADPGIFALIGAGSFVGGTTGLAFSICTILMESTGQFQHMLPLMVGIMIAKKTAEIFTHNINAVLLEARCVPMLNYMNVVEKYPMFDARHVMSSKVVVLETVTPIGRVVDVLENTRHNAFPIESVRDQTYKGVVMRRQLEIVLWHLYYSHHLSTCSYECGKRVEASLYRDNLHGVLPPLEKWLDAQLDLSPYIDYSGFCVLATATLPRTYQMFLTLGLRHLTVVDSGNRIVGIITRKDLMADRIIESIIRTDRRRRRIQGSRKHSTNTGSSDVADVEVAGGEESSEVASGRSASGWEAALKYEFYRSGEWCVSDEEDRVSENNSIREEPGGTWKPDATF

Compound: O=S(=O)(O)c1cc(N=C=S)ccc1/C=C/c1ccc(N=C=S)cc1S(=O)(=O)O [DIDS, 4,4-diisothiocyanostilbene-2,2-disulphonate]
- IC50 [1]: 56 ± 18 µM
- IC50 [2]: 30 ± 3 µM
